The values that follow come from ChEMBL document CHEMBL3603752, “Discovery of N-(4-aryl-5-aryloxy-thiazol-2-yl)-amides as potent RORγt inverse agonists” (Bioorg Med Chem, 2015).

Series [1] has as its system Liver. As to the kind of experiment: Intrinsic clearance in mouse liver microsomes at 0.5 microM by LC/MS/MS analysis. The format is ADME.
In series [2] the target is T1, Nuclear receptor ROR-gamma (Mus musculus, UniProt P51450).
T1 sequence (P51450 whole entry): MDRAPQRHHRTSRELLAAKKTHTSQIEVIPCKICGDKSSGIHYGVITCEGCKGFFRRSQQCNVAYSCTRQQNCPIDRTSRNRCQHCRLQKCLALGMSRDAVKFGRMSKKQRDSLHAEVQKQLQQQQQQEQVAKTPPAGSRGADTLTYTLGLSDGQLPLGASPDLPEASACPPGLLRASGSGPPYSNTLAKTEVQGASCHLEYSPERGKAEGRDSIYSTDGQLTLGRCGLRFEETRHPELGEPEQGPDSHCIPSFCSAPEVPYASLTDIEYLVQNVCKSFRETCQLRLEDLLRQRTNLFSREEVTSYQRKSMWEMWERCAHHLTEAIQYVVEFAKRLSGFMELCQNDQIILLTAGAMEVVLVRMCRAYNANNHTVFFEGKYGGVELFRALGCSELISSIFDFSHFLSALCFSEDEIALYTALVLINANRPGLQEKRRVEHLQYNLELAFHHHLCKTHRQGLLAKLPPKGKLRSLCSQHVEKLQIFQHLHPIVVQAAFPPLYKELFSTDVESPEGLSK
The experiment in a line: Inverse agonist activity at RORgammat in mouse Th17 cells assessed as inhibition of IL-17 production after 3 days by ELISA. The format is cell-based.

The target of series [3] is T2, Nuclear receptor ROR-gamma (Homo sapiens, UniProt P51449).
T2 sequence (P51449 whole entry): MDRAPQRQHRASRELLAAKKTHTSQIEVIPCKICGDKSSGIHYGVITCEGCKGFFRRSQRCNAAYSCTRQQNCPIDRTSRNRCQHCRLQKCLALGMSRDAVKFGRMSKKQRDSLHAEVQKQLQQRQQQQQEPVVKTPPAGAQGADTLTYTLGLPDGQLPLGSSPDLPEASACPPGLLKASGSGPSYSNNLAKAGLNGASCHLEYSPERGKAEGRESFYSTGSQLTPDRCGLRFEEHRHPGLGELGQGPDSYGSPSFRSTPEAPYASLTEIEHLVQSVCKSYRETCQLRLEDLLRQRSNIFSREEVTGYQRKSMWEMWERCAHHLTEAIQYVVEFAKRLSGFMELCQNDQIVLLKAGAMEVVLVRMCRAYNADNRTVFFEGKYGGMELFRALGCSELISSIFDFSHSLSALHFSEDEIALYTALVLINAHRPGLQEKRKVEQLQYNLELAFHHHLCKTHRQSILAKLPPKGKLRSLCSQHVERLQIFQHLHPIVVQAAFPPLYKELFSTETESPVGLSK
As to the kind of experiment: Inverse agonist activity at APC-labeled RORgammat-LBD (unknown origin) assessed as inhibition of N-(2-chloro-6-fluorobenzyl)-N-((2'-methoxy-[1,1'-biphenyl]-4-yl)-methyl)benzenesulfonamide-induced europium-labeled SRC1 recruitment after 1 hr by FRET analysis.

The target of series [4] is T2, Nuclear receptor ROR-gamma. The experiment in a line: Agonist activity at APC-labeled RORgammat-LBD (unknown origin) assessed as induction of europium-labeled SRC1 recruitment after 1 hr by dual FRET analysis.

Bounds are passed on as bounds.

For the compound `CCS(=O)(=O)c1ccc(CC(=O)Nc2nc(-c3cccc(C#N)c3)c(Oc3ccc(Cl)cc3C(F)(F)F)s2)cc1`, the CLH in series [1] is less than 0.36 mL/min/g. The IC50 in series [2] is 158 nM.
Turning to `CCS(=O)(=O)c1ccc(CC(=O)Nc2nc(-c3cc(Cl)ccc3Cl)c(-c3ccccc3)s2)cc1`, the IC50 in series [3] is 158 nM. Also, the EC50 in series [4] is 3160 nM.
Compound `CCS(=O)(=O)c1ccc(CC(=O)Nc2nc(-c3ccccc3)c(Oc3ccccc3Cl)s2)cc1` displayed a CLH in series [1] of 0.46 mL/min/g. Moreover, the IC50 in series [2] is 1580 nM.
The corresponding values for `CCS(=O)(=O)c1ccc(CC(=O)Nc2nc(-c3ccccc3)c(Oc3ccccc3C(F)(F)F)s2)cc1` are less than 0.36 mL/min/g and 1000 nM.
On to `CCS(=O)(=O)c1ccc(CC(=O)Nc2nc(-c3ccccc3)c(Oc3ccccc3OC)s2)cc1`, for which the CLH in series [1] is 2.37 mL/min/g. Further, in series [2], the IC50 is 251 nM.
The corresponding values for `CCS(=O)(=O)c1ccc(CC(=O)Nc2nc(-c3ccccc3)c(Oc3ccc(Cl)cc3)s2)cc1` are less than 0.36 mL/min/g and 1580 nM.
The corresponding values for `CCS(=O)(=O)c1ccc(CC(=O)Nc2nc(-c3ccccc3)c(Oc3ccc(C(F)(F)F)cc3)s2)cc1` are less than 0.36 mL/min/g and 631 nM.
On the same counts, the results for `CCS(=O)(=O)c1ccc(CC(=O)Nc2nc(-c3ccccc3)c(Oc3ccc(OC)cc3)s2)cc1` are 0.39 mL/min/g and greater than 10000 nM.
In the case of `CCS(=O)(=O)c1ccc(CC(=O)Nc2nc(-c3ccc(Cl)cc3)c(Oc3ccccc3)s2)cc1`, the CLH in series [1] is less than 0.36 mL/min/g. Also, the IC50 in series [2] was 3980 nM.
For the compound `CCS(=O)(=O)c1ccc(CC(=O)Nc2nc(-c3cccc(Cl)c3)c(Oc3ccccc3)s2)cc1`, in series [2], the IC50 was 1580 nM.
As to `CCS(=O)(=O)c1ccc(CC(=O)Nc2nc(-c3cccc(Cl)c3)c(Oc3ccccc3C(F)(F)F)s2)cc1`, the CLH in series [1] is less than 0.36 mL/min/g. Also, the IC50 in series [2] was 2000 nM.
Turning to `CCS(=O)(=O)c1ccc(CC(=O)Nc2nc(-c3cccc(C#N)c3)c(Oc3ccccc3C(F)(F)F)s2)cc1`, the CLH in series [1] was less than 0.36 mL/min/g. For the same compound, the IC50 in series [2] is 251 nM.
Take `CCS(=O)(=O)c1ccc(CC(=O)Nc2nc(-c3cccc(C#N)c3)c(Oc3ccc(C(F)(F)F)cc3Cl)s2)cc1`: the CLH in series [1] is less than 0.36 mL/min/g. The IC50 in series [2] is 398 nM.
